Test results reported in patent US20230059785A1, “METHODS FOR ENHANCING T CELLS USING VENETOCLAX” (University Health Network, priority 2020, published 2023).

Experiments:
OCI-AML2 [1] = assay: DNT cells pre-treated with Bcl-2 family protein inhibitors, used as effectors against OCI-AML2; details: overnight pre-treatment, different concentrations
Source text: FIG. 5. […] (A) DNT cells were pre-treated with different concentrations of Obatoclax, ABT-737, or Venetoclax overnight and were used as effector cells against OCI-AML2. […] (C) Expression of Bcl-xL and Bcl-2 on ex vivo expanded DNT cells from three donors (UPN38, UPN108, and UPN134) and AML cell lines, OCI-AML2, TEX, NB4, and K562 determined by Western blot. Tubulin was used as a loading control.
As Bcl-2 is well-known to protect cells from apoptosis, one would expect that inhibiting this pathway would lead to increased T cell apoptosis and dampened T cell function.

[2] = system: DNTs treated with 400 nM Ven; assay: Co-treatment of DNT cells with Venetoclax and ROS scavenger NAC; format: cell-based, human
Experimental: (C) To determine the functional relevance of increased ROS level in Ven treated DNTs, ROS level in DNTs treated with 400 nM Ven in the presence of various concentrations of ROS-scavenger, N-acetylcysteine (NAC), and these cells were used as effector cells against AML during an in vitro killing assay. The result shown is representative of three independent experiments. […] (H-K) DNT (H and I) or Tconv cells (J and K) were treated with 0 nM, 100 nM, or 400 nM Venetoclax for 4 hours, 18 hours and 2 days. Cells were stained with CellROX (H and J) or MitoSOX (I and K). MFI of cellular or mitochondrial (mt) ROS was measured by flow cytometry. Data represent the mean ±SEM of results from four different donor T cells. (L) DNTs treated with 400 nM Venetoclax with or without 2 mM NAC for 18 hours. […] MFI of CD25 and CD69 were measured by flow cytometry. Experiments were done in triplicates, and the data shown is representative of two independent experiments done using DNTs from two donors. (M) DNT cells were treated with 400 nM Venetoclax for 18 hours.

DNTs [3] = assay: Effect of other ROS-inducing reagents on DNT ROS level and viability; details: 18 hours; cytarabine 0-3 μM, antimycin 0-250 nM, daunorubicin 0-10 μM
Experimental: (§1) FIG. 15. Effect of other known ROS-inducing reagents on DNT viability, ROS level, and cytotoxicity against AML. DNTs were treated with increasing concentrations of cytarabine (0-3 μM), antimycin (0-250 nM) or daunorubicin (0-10 μM) for 18 hours. Subsequently, the level of cellar ROS in the DNTs (A), DNT viability (B), and cytotoxicity against OCI-AML2 (C) were determined.
(§2) To determine the effect of other ROS-inducing agents on DNT-mediated cytotoxicity, DNTs were treated with increasing concentrations of cytarabine, daunorubicin, and antimycin.

DNT and Tconv cells = assay: Viability of DNT and Tconv cells after Venetoclax treatment; format: cell-based, human; details: Venetoclax 100 nM or 400 nM, 4 hours
Experimental: (§3) Venetoclax rapidly and directly increases cytotoxicity of T cells against AML. DNT (top panels) and Tconv cells (bottom panels) untreated or treated with Venetoclax (100 nM and 400 nM) for 4 h, 18 h, and 3 days. Subsequently, their cytotoxicity against OCI-AML2 was determined. Data represent the mean ±SEM of results from four different donor T cells. FIG. 4(C). DNT and Tconv cells untreated or treated with Venetoclax (100 nM or 400 nM) for 4 hours. Subsequently, their viability was determined. Data represent the mean ±SEM of results from four different donor T cells.
(§4) To elucidate the underlying mechanism by which Ven-mediates increased cytotoxicity of T cells, the expression of T cell activation markers and effector molecules on DNT cells with or without Ven treatment was compared. […] Thus, Venetoclax directly activates effector T cells to increase their cytotoxicity without depleting naïve or inhibitory T cell subsets.

DNT cells = assay: Glycolysis, glycolytic capacity and oxygen consumption rate of DNT cells; format: cell-based, human
DNTs [4] = assay: Viability of DNTs treated with Venetoclax (Annexin V staining and flow cytometry); format: cell-based, human; details: Venetoclax 18 h
Experimental: FIG. 10. […] (A) Viability of DNTs and OCI-AML2 cells treated with 400 nM Venetoclax for 18 hours was determined by Annexin V staining and flow cytometry. (B and C) DNTs were treated with increasing concentrations of Venetoclax for 18 h. Subsequently, their viability (B) and cytotoxicity (C) against OCI-AML2 and two primary AML cells (090765 and 110162) were determined. ANOVA was used for statistics. ****p<0.0001.

[5] = system: primary AML patient samples; format: cell-based, human
Experimental: (§5) FIG. 2. Venetoclax enhances T cell mediated cytotoxicity against AML in vitro. (A) To validate the finding from the drug screening, in vitro killing assay was conducted with DNT cells untreated or pretreated with various concentrations of Ven (50 nM, 100 nM, 200 nM, 400 nM) for overnight against AML cell lines, OCI-AML2, OCI-AML3, and KG1a. The data is representative of four biological replicates. (B) In vitro cytotoxicity assay using DNT cells pretreated with 400 nM Ven as effectors against primary AML patient samples (n=17). (C) To determine the activity of DNT cells with or without Ven-treatment against leukemia initiating cells, untreated AML or AML treated with untreated or Ven-treated DNT cells were seeded at 10^3 cells per ml in a methylcellulose-based colony forming assay, and the number of colonies formed were determined 10 days after. The experiment was done with OCI-AML2 and KG1a, as well as patient samples 140372, 100857, 110162 and 141065. […] The experiment was done using DNT cells from two different donors (UPN119 and UPN38). […] Subsequently, they were cultured with OCI-AML2 at 1:1, 2:1, or 4:1 DNT:AML ratio, and the viability of AML cells were measured by Annexin V staining and flow cytometry. […]
FIG. 11. […] The increase in DNT-mediated cytotoxicity by Venetoclax treatment was determined against each patient sample type. […]

[6] = system: AML cell lines, OCI-AML2, OCI-AML3, and KG1a; assay: In vitro killing assay with Ven-pretreated DNT cells against AML cell lines; format: cell-based, human; details: Ven 50, 100, 200, 400 nM overnight
Experimental: as §5, with “UPN38). (E) Correlation between the susceptibility of AML to DNT cells and the degree of increase in DNT cell-mediated cytotoxicity by Ven treatment.” for “UPN38).”

[7] = system: human AML cell line, OCI-AML2; assay: Drug screening assay: DNT cells pretreated with 269 approved drugs, then used as effectors against AML; format: cell-based; details: DNT cells treated at 400 nM overnight, washed, cultured with AML cells two hours; library of 269 drugs
Experimental: FIG. 1. Drug screening assay identifies Venetoclax as the top hit for enhancing cytotoxicity of T cells against AML. Schematic diagram of drug screening assay done to identify clinically approved drugs that can be used in combination with DNT cells to yield in synergistic anti-tumor activity. DNT cells were treated with 269 different clinically approved drugs at 400 nM for overnight. Subsequently, compound-treated cells were washed and then cultured with AML cells for two-hours.
To identify molecules that increase the potency of T cell mediated cytotoxicity against AML, ex vivo expanded DNT cells were used as a surrogate for anti-leukemic T cells and pretreated with a compound library of 269 drugs approved for various clinical uses. Subsequently, compound-treated cells were used as effectors against human AML cell line, OCI-AML2.

[8] = system: AML cell lines, OCI-AML2, OCI-AML3, and KG1a; assay: In vitro killing assay with Ven-pretreated Tconv cells against AML cell lines; format: cell-based, human; details: Ven 25-400 nM
Experimental: FIG. 4(A). Venetoclax enhances anti-leukemic activity of CD4^+ or CD8^+ conventional T cells. Ex vivo expanded Tconv cells untreated or treated with various concentrations of Ven (25 nM, 50 nM, 100 nM, 200 nM, or 400 nM), were used as effector cells against AML cell lines, OCI-AML2, OCI-AML3, and KG1a. The result shown represents four biological replicates. FIG. 4(B).
While treating DNT cells with Ven to enhance their anti-leukemic activity may be beneficial for DNT-therapy, experiments were performed to determine whether Ven has an effect on the anti-leukemic activity of CD4^+ or CD8^+ conventional T (Tconv) cells as Tconv cells are more wildly used as cancer immunotherapy clinically. To this end, polyclonally activated Tconv cells were pre-treated with different concentrations of Ven prior to their co-culture with […]

OCI-AML2 [9] = assay: Time course of Venetoclax treatment of DNT and Tconv cells, cytotoxicity against OCI-AML2; format: cell-based, human; details: DNTs and Tconv cells; Venetoclax 100 nM and 400 nM; 4 hours up to 3 days
Experimental: as §3, §4

[10] = system: autologous and allogeneic PBMCs; assay: Cytotoxicity of DNT cells against normal blood cells; format: cell-based, human; details: PBMCs from healthy donors
Source text: To determine if Ven increases the cytotoxicity of DNT cells against normal blood cells, autologous and allogeneic PBMCs from healthy donors were used as targets.

OCI-AML2 [11] = assay: Effect of other ROS-inducing reagents on DNT cytotoxicity against OCI-AML2; details: 18 hours; cytarabine 0-3 μM, antimycin 0-250 nM, daunorubicin 0-10 μM
Experimental: as §1, §2

COC1=CC(c2cc3ccccc3[nH]2)=N/C1=C\c1[nH]c(C)cc1C [Obatoclax]
effect on DNT cells and their cytotoxicity against OCI-AML2 (OCI-AML2 [1]): induced DNT cell death or inhibited their cytotoxicity

CC(=O)N[C@@H](CS)C(=O)O [NAC, N-acetylcysteine]
upregulation of activation markers (CD25 and CD69) by Venetoclax ([2]; 400 nM Venetoclax with 2 mM NAC, 18 hours): blocked the upregulation of activation markers
DNT cell-mediated cytotoxicity against AML ([2]; co-treatment with 400 nM Ven): abrogated the effect of Venetoclax on DNT cell-mediated cytotoxicity against AML
cellular ROS level in Venetoclax-treated DNT cells ([2]; co-treatment with 400 nM Ven): reduced the cellular ROS level

COc1cccc2c1C(=O)c1c(O)c3c(c(O)c1C2=O)C[C@@](O)(C(C)=O)C[C@@H]3O[C@H]1C[C@H](N)[C@H](O)[C@H](C)O1 [daunorubicin]
level of cellular ROS in DNTs (DNTs [3]): lower ROS level

CC1(C)CCC(CN2CCN(c3ccc(C(=O)NS(=O)(=O)c4ccc(NCC5CCOCC5)c([N+](=O)[O-])c4)c(Oc4cnc5[nH]ccc5c4)c3)CC2)=C(c2ccc(Cl)cc2)C1 [Venetoclax]
T cell viability (DNT and Tconv cells): without changing the T cell viability
glycolysis, glycolytic capacity, and basal oxygen consumption rate of DNT cells (DNT cells): no significant effect
viability of DNTs (DNTs [4]): without reducing the viability of the DNTs
correlation between susceptibility of AML to DNT cells and degree of increase in DNT cell-mediated cytotoxicity by Ven treatment [5]: clear inverse correlation
cytotoxicity of Ven-pretreated DNT cells against AML cell lines [6]: increased cytotoxicity of DNT cells against three different AML cell lines, AML2-OCI, AML3-OCI, and KG1a, in a dose-dependent manner
change in cytotoxicity mediated by DNT cells against AML cells relative to untreated DNT cells [7]: increased the cytotoxicity of DNT cells the most
cytotoxicity of Ven-pretreated Tconv cells against AML cell lines [8]: significant enhancement of cytotoxicity of Tconv cells
T cell cytotoxicity against AML after different treatment times (OCI-AML2 [9]): increased T cell cytotoxicity against AML
killing of autologous and allogeneic PBMCs by Ven-treated DNT cells [10]: insignificant degree of killing

Nc1ccn([C@@H]2O[C@H](CO)[C@@H](O)[C@@H]2O)c(=O)n1 [cytarabine]
level of cellular ROS in DNTs (DNTs [3]): Increased ROS levels

antimycin
DNT-mediated cytotoxicity against OCI-AML2 (OCI-AML2 [11]): did not enhance the cytotoxicity of DNTs
DNT viability (DNTs [3]): no to little loss of viability
level of cellular ROS in DNTs (DNTs [3]): Increased ROS levels
